Values after ≈ are worked out from the molar mass of the structure shown.
Assays:
Assay type in all cases: cell-based
S. aureus UC9213 = experiment: MIC by standard agar dilution, S. aureus UC9213; conditions: incubated overnight at 35° C.; for MIC: Staphylococcus aureus, UC9213, Mueller Hinton agar; for S. aureus UC9213 MIC: Mueller Hinton agar
Source text: (§1) The in vitro activity of compounds of the subject invention may be assessed by standard testing procedures such as the determination of minimum inhibitory concentration (MIC) by agar dilution as described in “Approved Standard. Methods for Dilution Antimicrobial Susceptibility Tests for Bacteria that Grow Aerobically,” 3rd ed., published 1993 by the National Committee for Clinical Laboratory standards, Villanova, Pa., USA.
(§2) The in vitro MICs of test compounds may be determined by a standard agar dilution method. A stock drug solution of each analog is prepared in a preferred solvent, usually DMSO:H2O (1:3). Serial 2-fold dilutions of each sample are made using 1.0 mL aliquots of sterile distilled water. To each 1.0 mL aliquot of drug is added 9 mL of molten Mueller Hinton agar medium. The drug-supplemented agar is mixed, poured into 15×100 mm petri dishes, and allowed to solidify and dry prior to inoculation.
(§3) Vials of each of the test organisms are maintained frozen in the vapor phase of a liquid nitrogen freezer. Test cultures are grown overnight at 35° C. on the medium appropriate for the organism. Colonies are harvested with a sterile swab, and cell suspensions are prepared in Trypticase Soy broth (TSB) to equal the turbidity of a 0.5 McFarland standard. A 1:20 dilution of each suspension is made in TSB. The plates containing the drug supplemented agar are inoculated with a 0.001 mL drop of the cell suspension using a Steers replicator, yielding approximately 10^4 to 10^5 cells per spot. The plates are incubated overnight at 35° C.
(§4) Following incubation the Minimum Inhibitory Concentration (MIC μg/mL), the lowest concentration of drug that inhibits visible growth of the organism, is read and recorded.

S. pneumoniae UC9912 = experiment: MIC by standard agar dilution, S. pneumoniae UC9912; conditions: incubated overnight at 35° C.; for MIC: Streptococcus pneumoniae, UC9912, Mueller Hinton agar; for S. pneumoniae UC9912 MIC: Mueller Hinton agar
Source text: as §1, §2, §3, §4

H. influenzae 30063 = experiment: MIC by standard agar dilution, H. influenzae 30063; conditions: Mueller Hinton agar, incubated overnight at 35° C.; for MIC: Haemophilus influenzae, 30063, agar dilution, read-out: H. influenzae 30063 MIC; for H. influenzae 30063 MIC: agar dilution
Source text: as §1, §2, §3, §4

Row | Compound | MIC (S. aureus UC9213) | MIC (S. pneumoniae UC9912) | MIC (H. influenzae 30063) | S. aureus UC9213 MIC (S. aureus UC9213) | S. pneumoniae UC9912 MIC (S. pneumoniae UC9912) | H. influenzae 30063 MIC (H. influenzae 30063)
1 | CC(=O)NC[C@H]1CN(c2ccc([C@H]3[C@@H]4COC[C@@H]43)c(F)c2)C(=O)O1 [Example 4, N-[((5S)-3-{3-fluoro-4-[exo-(1R,5S)-3-oxabicyclo[3.1.0]hex-6-yl]phenyl}-2-oxo-1,3-oxazolidin-5-yl)methyl]acetamide] | 4 µg/mL (≈ 12 µM) | 0.5 µg/mL (≈ 1.5 µM) | 4 µg/mL (≈ 12 µM) |  |  | 
2 | CC(=O)NC[C@H]1CN(c2ccc([C@H]3[C@@H]4CN(C(=O)CO)C[C@@H]43)c(F)c2)C(=O)O1 [Example 5, N-[((5S)-3-{3-fluoro-4-[exo-(1R,5S)-3-glycoloyl-3-azabicyclo[3.1.0]hex-6-yl]phenyl}-2-oxo-1,3-oxazolidin-5-yl)methyl]acetamide] | 2 µg/mL (≈ 5.11 µM) | 0.25 µg/mL (≈ 0.639 µM) | 4 µg/mL (≈ 10.2 µM) |  |  | 
3 | O=C(CO)N1C[C@@H]2[C@H](C1)[C@H]2c1ccc(N2C[C@H](CNC(=S)C(F)F)OC2=O)cc1F [Example 6, 2,2-difluoro-N-[((5S)-3-{3-fluoro-4-[exo-(1R,5S)-3-gycoloyl-3-azabicyclo[3.1.0]hex-6-yl]phenyl}-2-oxo-1,3-oxazolidin-5-yl)methyl]ethanethioamide] | 0.5 µg/mL (≈ 1.13 µM) | 0.25 µg/mL (≈ 0.564 µM) | 4 µg/mL (≈ 9.02 µM) |  |  | 
4 | COC(=O)N1C[C@@H]2C(c3ccc(N4C[C@H](CNC(C)=O)OC4=O)cc3F)[C@@H]2C1 (stereo partly drawn) [Example 7, methyl exo-(1R,5S)-6-(4-{(5S)-5-[(acetylamino)methyl]-2-oxo-1,3-oxazolidin-3-yl}-2-fluorophenyl)-3-azabicyclo[3.1.0]hexane-3-carboxylate] |  |  |  | 2 µg/mL | 0.5 µg/mL | 
5 | CC(=O)NC[C@H]1CN(c2ccc([C@H]3[C@@H]4CN(C=O)C[C@@H]43)c(F)c2)C(=O)O1 [Example 8, N-[((5S)-3-{3-fluoro-4-[exo-(1R,5S)-3-formyl-3-azabicyclo[3.1.0]hex-6-yl]phenyl}-2-oxo-1,3-oxazolidin-5-yl)methyl]acetamide] | 4 µg/mL (≈ 11.1 µM) | 1 µg/mL (≈ 2.77 µM) | 8 µg/mL (≈ 22.1 µM) |  |  | 
6 | CC(=O)NC[C@H]1CN(c2ccc([C@H]3[C@@H]4CN(C(=O)[C@@H](O)CO)C[C@@H]43)c(F)c2)C(=O)O1 [Example 9, N-[((5S)-3-{3-fluoro-4-[exo-(1R,5S)-3-((2S)-2,3-dihydroxypropanoyl)-3-azabicyclo[3.1.0]hex-6-yl]phenyl}-2-oxo-1,3-oxazolidin-5-yl)methyl]acetamide] | 8 µg/mL (≈ 19 µM) | 1 µg/mL (≈ 2.37 µM) | 8 µg/mL (≈ 19 µM) |  |  | 
7 | CC(=O)NC[C@H]1CN(c2cc(F)c([C@H]3[C@@H]4C[S+]([O-])C[C@@H]43)c(F)c2)C(=O)O1 (stereo partly drawn) [Example 12, N-[((5S)-3-{3,5-difluoro-4-[exo-(1R,5S)-3-oxido-3-thiabicyclo[3.1.0]hex-6-yl]phenyl}-2-oxo-1,3-oxazolidin-5-yl)methyl]acetamide] |  |  |  | 1 µg/mL | 0.5 µg/mL | 4 µg/mL
8 | CC(=O)NC[C@H]1CN(c2cc(F)c([C@H]3[C@@H]4CS(=O)(=O)C[C@@H]43)c(F)c2)C(=O)O1 [Example 13, N-[((5S)-3-{4-[exo-(1R,5S)-3,3-dioxido-3-thiabicyclo[3.1.0]hex-6-yl]-3,5-difluorophenyl}-2-oxo-1,3-oxazolidin-5-yl)methyl]acetamide] | 1 µg/mL (≈ 2.5 µM) | 0.5 µg/mL (≈ 1.25 µM) | 8 µg/mL (≈ 20 µM) |  |  | 
9 | CC(=O)NC[C@H]1CN(c2cc(F)c([C@H]3[C@@H]4COC[C@@H]43)c(F)c2)C(=O)O1 [Example 14, N-[((5S)-3-{3,5-difluoro-4-[exo-(1R,5S)-3-oxabicyclo[3.1.0]hex-6-yl]phenyl}-2-oxo-1,3-oxazolidin-5-yl)methyl]acetamide] | 2 µg/mL (≈ 5.68 µM) | 0.5 µg/mL (≈ 1.42 µM) | 16 µg/mL (≈ 45.4 µM) |  |  | 
10 | CC(=O)NC[C@H]1CN(c2cc(F)c([C@H]3[C@@H]4CN(C(=O)CO)C[C@@H]43)c(F)c2)C(=O)O1 [Example 15, N-[((5S)-3-{3,5-difluoro-4-[exo-(1R,5S)-3-glycoloyl-3-azabicyclo[3.1.0]hex-6-yl]phenyl}-2-oxo-1,3-oxazolidin-5-yl)methyl]acetamide] | 2 µg/mL (≈ 4.89 µM) | 0.5 µg/mL (≈ 1.22 µM) | 16 µg/mL (≈ 39.1 µM) |  |  | 
11 | CC(=O)NC[C@H]1CN(c2ccc([C@H]3[C@@H]4COC[C@@H]43)cc2)C(=O)O1 [Example 16, N-[((5S)-3-{4-[exo-(1R,5S)-3-oxabicyclo[3.1.0]hex-6-yl]phenyl}-2-oxo-1,3-oxazolidin-5-yl)methyl]acetamide] | 4 µg/mL (≈ 12.6 µM) | 2 µg/mL (≈ 6.32 µM) | 16 µg/mL (≈ 50.6 µM) |  |  | 
12 | CC(=O)NC[C@H]1CN(c2ccc([C@H]3[C@@H]4C[S+]([O-])C[C@@H]43)cc2)C(=O)O1 (stereo partly drawn) [Example 18, N-[((5S)-3-{4-[exo-(1R,5S)-3-oxido-3-thiabicyclo[3.1.0]hex-6-yl]phenyl}-2-oxo-1,3-oxazolidin-5-yl)methyl]acetamide] | 2 µg/mL (≈ 5.74 µM) | 0.5 µg/mL (≈ 1.44 µM) | 4 µg/mL (≈ 11.5 µM) |  |  | 
13 | NC(=O)[C@H]1CN(c2ccc([C@H]3[C@@H]4CS(=O)(=O)C[C@@H]43)c(F)c2)C(=O)O1 [Example 20, (5R)-3-{4-[exo-(1R,5S)-3,3-dioxido-3-thiabicyclo[3.1.0]hex-6-yl]-3-fluorophenyl}-2-oxo-1,3-oxazolidine-5-carboxamide] | 2 µg/mL (≈ 5.64 µM) | 2 µg/mL (≈ 5.64 µM) | > 64 µg/mL |  |  | >64 µg/mL
14 | CCC(=O)NC[C@H]1CN(c2ccc([C@H]3[C@@H]4CNC[C@@H]43)c(F)c2)C(=O)O1 [Example 21, N-[((5S)-3-{4-[exo-(1R,5S)-3-azabicyclo[3.1.0]hex-6-yl]-3-fluorophenyl}-2-oxo-1,3-oxazolidin-5-yl)methyl]proyanamide] | 4 µg/mL (≈ 11.5 µM) | 1 µg/mL (≈ 2.88 µM) | 8 µg/mL (≈ 23 µM) |  |  | 

Further lines, with some results ahead:

Row | MIC (S. aureus UC9213) | MIC (S. pneumoniae UC9912) | MIC (H. influenzae 30063) | Compound | S. aureus UC9213 MIC (S. aureus UC9213) | S. pneumoniae UC9912 MIC (S. pneumoniae UC9912) | H. influenzae 30063 MIC (H. influenzae 30063)
15 | 2 µg/mL (≈ 5.46 µM) | 0.25 µg/mL (≈ 0.682 µM) | 2 µg/mL (≈ 5.46 µM) | CC(=O)NC[C@H]1CN(c2ccc([C@H]3[C@@H]4C[S+]([O-])C[C@@H]43)c(F)c2)C(=O)O1 (stereo partly drawn) [Example 2, N-[((5S)-3-{3-fluoro-4-[exo-(1R,5S)-3-oxido-3-thiabicyclo[3.1.0]hex-6-yl]phenyl}-2-oxo-1,3-oxazolidin-5-yl)methyl]acetamide] |  |  | 
16 | 2 µg/mL (≈ 5.23 µM) | 0.25 µg/mL (≈ 0.654 µM) | 4 µg/mL (≈ 10.5 µM) | CC(=O)NC[C@H]1CN(c2ccc([C@H]3[C@@H]4CS(=O)(=O)C[C@@H]43)c(F)c2)C(=O)O1 [Example 3, N-[((5S)-3-{4-[exo-(1R,5S)-3,3-dioxido-3-thiabicyclo[3.1.0]hex-6-yl]-3-fluorophenyl}-2-oxo-1,3-oxazolidin-5-yl)methyl]acetamide] |  |  | 
17 | 2 µg/mL (≈ 5.31 µM) | 0.5 µg/mL (≈ 1.33 µM) | 4 µg/mL (≈ 10.6 µM) | CC(=O)NC[C@H]1CN(c2ccc([C@H]3[C@@H]4CN(C(N)=O)C[C@@H]43)c(F)c2)C(=O)O1 [Example 10, exo-(1R,5S)-6-(4-{(5S)-5-[(acetylamino)methyl]-2-oxo-1,3-oxazolidin-3-yl}-2-fluorophenyl)-3-azabicyclo[3.1.0]hexane-3-carboxamide] |  |  | 
18 | 0.5 µg/mL (≈ 1.17 µM) | 0.25 µg/mL (≈ 0.584 µM) | 2 µg/mL (≈ 4.67 µM) | NC(=O)N1C[C@@H]2[C@H](C1)[C@H]2c1ccc(N2C[C@H](CNC(=S)C(F)F)OC2=O)cc1F [Example 11, exo-(1R,5S)-6-[4-((5S)-5-{[(2,2-difluoroethanethioyl)amino]methyl}-2-oxo-1,3-oxazolidin-3-yl)-2-fluorophenyl]-3-azabicyclo[3.1.0]hexane-3-carboxamide] |  |  | 
19 | 4 µg/mL (≈ 10.7 µM) | 2 µg/mL (≈ 5.36 µM) | 8 µg/mL (≈ 21.4 µM) | CC(=O)NC[C@H]1CN(c2ccc([C@H]3[C@@H]4CN(C(=O)CO)C[C@@H]43)cc2)C(=O)O1 [Example 17, N-[((5S)-3-{4-[exo-(1R,5S)-3-glycoloyl-3-azabicyclo[3.1.0]hex-6-yl]phenyl}-2-oxo-1,3-oxazolidin-5-yl)methyl]acetamide] |  |  | 
20 | 4 µg/mL (≈ 11 µM) | 1 µg/mL (≈ 2.74 µM) | 8 µg/mL (≈ 22 µM) | CC(=O)NC[C@H]1CN(c2ccc([C@H]3[C@@H]4CS(=O)(=O)C[C@@H]43)cc2)C(=O)O1 [Example 19, N-[((5S)-3-{4-[exo-(1R,5S)-3,3-dioxido-3-thiabicyclo[3.1.0]hex-6-yl]phenyl}-2-oxo-1,3-oxazolidin-5-yl)methyl]acetamide] |  |  | 
21 | 1 µg/mL (≈ 2.66 µM) | 0.5 µg/mL (≈ 1.33 µM) | 8 µg/mL (≈ 21.3 µM) | CCC(=O)NC[C@H]1CN(c2ccc([C@H]3[C@@H]4CN(C=O)C[C@@H]43)c(F)c2)C(=O)O1 [Example 22, N-[((5S)-3-{3-fluoro-4-[exo-(1R,5S)-3-formyl-3-azabicyclo[3.1.0]hex-6-yl]phenyl}-2-oxo-1,3-oxazolidin-5-yl)methyl]propanamide] |  |  | 
22 | 1 µg/mL (≈ 2.56 µM) | 0.25 µg/mL (≈ 0.64 µM) | 4 µg/mL (≈ 10.2 µM) | CCC(=O)NC[C@H]1CN(c2ccc([C@H]3[C@@H]4CN(C(N)=O)C[C@@H]43)c(F)c2)C(=O)O1 [Example 23, exo-(1R,5S)-6-(4-{(5S)-5-[(propanoylamino)methyl]-2-oxo-1,3-oxazolidin-3-yl}-2-fluorophenyl)-3-azabicyclo[3.1.0]hexane-3-carboxamide] |  |  | 

Source: patent publication US7279494B2, “Antimicrobial [3.1.0] bicyclohexylphenyl-oxazolidinone derivatives and analogues” (Pfizer Inc., priority 2003, dated 2007)
